Holding throughout (type): functional
The subject of test [1] is Mus musculus. Briefly: Antinociceptive activity in Mus musculus Swiss (mouse) assessed as protection against acetic acid-induced writhing at 50 mg/kg, po administered 1 hr prior challenge measured for 20 min following acetic acid treatment relative to control. (In general: Writhing tests count abdominal constrictions after an irritant is injected.)
The subject of test [2] is Rattus norvegicus. As to the kind of experiment: Antipyretic activity in yeast-fevered Rattus norvegicus Sprague-Dawley (rat) assessed as reduction in rectal temperature at 50 mg/kg, po administered 17 hr post challenge measured after 120 min. Set-up: scale not given: the % may be the effect or the level left.
Test [3] relates to Rattus norvegicus. Briefly: Antipyretic activity in yeast-fevered Rattus norvegicus Sprague-Dawley (rat) assessed as reduction in rectal temperature at 50 mg/kg, po administered 17 hr post challenge measured after 90 min. Also on record: scale not given: the % may be the effect or the level left.
Test [4] concerns Rattus norvegicus. Briefly: Antipyretic activity in yeast-fevered Rattus norvegicus Sprague-Dawley (rat) assessed as reduction in rectal temperature at 50 mg/kg, po administered 17 hr post challenge measured after 60 min. Set-up: scale not given: the % may be the effect or the level left.
In test [5] the test system is Rattus norvegicus. As to the kind of experiment: Antipyretic activity in yeast-fevered Rattus norvegicus Sprague-Dawley (rat) assessed as reduction in rectal temperature at 50 mg/kg, po administered 17 hr post challenge measured after 30 min. Set-up: scale not given: the % may be the effect or the level left.
The subject of test [6] is Rattus norvegicus. As to the kind of experiment: Anti-inflammatory in Rattus norvegicus Sprague-Dawley (rat) subcutaneously implanted with cotton pellets assessed as inhibition of granuloma growth at 50 mg/kg, po measured after 7 days. The settings on record: 168 h.
Test [7] relates to Rattus norvegicus. Briefly: Anti-inflammatory activity in Rattus norvegicus Sprague-Dawley (rat) assessed as inhibition of carrageenan-induced paw edema at 100 mg/kg, po for 7 days challenged with carrageenan 1 hr post last dose on day 7 measured after 2 hr after challenge. On the technique in general: In the carrageenan paw model, swelling and tenderness develop within hours.

The subject of test [8] is Rattus norvegicus. As to the kind of experiment: Anti-inflammatory activity in Rattus norvegicus Sprague-Dawley (rat) assessed as inhibition of carrageenan-induced paw edema at 50 mg/kg, po for 7 days challenged with carrageenan 1 hr post last dose on day 7 measured after 2 hr after challenge.
The subject of test [9] is Rattus norvegicus. Briefly: Antipyretic activity in yeast-fevered Rattus norvegicus Sprague-Dawley (rat) assessed as reduction in rectal temperature at 100 mg/kg, po administered 17 hr post challenge measured after 120 min. Set-up: scale not given: the % may be the effect or the level left.
Test [10] has as its system Rattus norvegicus. As to the kind of experiment: Antipyretic activity in yeast-fevered Rattus norvegicus Sprague-Dawley (rat) assessed as reduction in rectal temperature at 100 mg/kg, po administered 17 hr post challenge measured after 90 min. Also on record: scale not given: the % may be the effect or the level left.
In test [11] the test system is Rattus norvegicus. As to the kind of experiment: Antipyretic activity in yeast-fevered Rattus norvegicus Sprague-Dawley (rat) assessed as reduction in rectal temperature at 100 mg/kg, po administered 17 hr post challenge measured after 60 min. Also on record: scale not given: the % may be the effect or the level left.
The subject of test [12] is Rattus norvegicus. Briefly: Antipyretic activity in yeast-fevered Rattus norvegicus Sprague-Dawley (rat) assessed as reduction in rectal temperature at 100 mg/kg, po administered 17 hr post challenge measured after 30 min. Set-up: scale not given: the % may be the effect or the level left.
In test [13] the test system is Mus musculus. Briefly: Antinociceptive activity in Mus musculus Swiss (mouse) assessed as protection against acetic acid-induced writhing at 25 mg/kg, po administered 1 hr prior challenge measured for 20 min following acetic acid treatment relative to control.
For test [14], the system named is Rattus norvegicus. Briefly: Anti-inflammatory in Rattus norvegicus Sprague-Dawley (rat) subcutaneously implanted with cotton pellets assessed as inhibition of granuloma growth at 25 mg/kg, po measured after 7 days. The settings on record: 168 h.
Test [15] relates to Rattus norvegicus. Briefly: Anti-inflammatory activity in Rattus norvegicus Sprague-Dawley (rat) assessed as inhibition of carrageenan-induced paw edema at 25 mg/kg, po for 7 days challenged with carrageenan 1 hr post last dose on day 7 measured after 2 hr after challenge.

As usually defined, the inhibition in vivo is how much of the control response was suppressed. For `O=C(O)CCC(=O)/C=C/c1ccc2c(c1)OCO2`, the Activity in the test with Mus musculus [1] is given as 69.65%; with Rattus norvegicus [2] it was 2.49%; with Rattus norvegicus [3], 3.41%; in the test with Rattus norvegicus [4], 4.08%; in the test with Rattus norvegicus [5], 0.99%. The inhibition in vivo at 50 mg/kg with Rattus norvegicus [6] worked out at 53.3%; with Rattus norvegicus [8], 57.5%. For the same compound, the inhibition in vivo at 100 mg/kg in the test on Rattus norvegicus [7] came out at 68.8%.
As for `NC(=O)c1cc(C(=O)CCC(=O)O)ccc1O`, the Activity is on record as 59.24% in the test with Mus musculus [1]; 2.44% in the test on Rattus norvegicus [2]; 2.71% with Rattus norvegicus [3]; 2.11% in the test with Rattus norvegicus [4]; 0.86% in the test with Rattus norvegicus [5]. The results for the inhibition in vivo at 50 mg/kg in the test with Rattus norvegicus [6] and in the test with Rattus norvegicus [8] were 34.4% and 13.6%, respectively. Moreover, the inhibition in vivo at 100 mg/kg in the test on Rattus norvegicus [7] was 27.5%.
Turning to `CC(=O)c1cc(C(=O)CCC(=O)O)ccc1O`, the Activity with Mus musculus [1] is given as 61.47%; with Rattus norvegicus [2], 2.52%; in the test with Rattus norvegicus [3] it was 2.63%; with Rattus norvegicus [4] it was 1.8%; with Rattus norvegicus [5] it was 1.58%. The values for the inhibition in vivo at 50 mg/kg with Rattus norvegicus [6] and in the test on Rattus norvegicus [8] were 5.2% and 4.11%, respectively. Moreover, the inhibition in vivo at 100 mg/kg in the test with Rattus norvegicus [7] is 22.4%.
Turning to `CC(=O)Nc1ccc(O)cc1` [ACETAMINOPHEN], the Activity with Rattus norvegicus [9] turned out to be 6.06%; in the test with Rattus norvegicus [10], 5.47%; in the test on Rattus norvegicus [11], 5.14%; with Rattus norvegicus [12], 4.18%.
Regarding `O=C([O-])Cc1ccccc1Nc1c(Cl)cccc1Cl.[Na+]` [DICLOFENAC SODIUM], in the test with Mus musculus [13], the Activity is on record as 72.58%. In addition, the inhibition in vivo at 25 mg/kg stood at 45.4% with Rattus norvegicus [14] and 47.6% in the test with Rattus norvegicus [15].

For the origin of these results see ChEMBL document CHEMBL3045855, “ANTIPYRETIC, ANTINOCICEPTIVE AND ANTI-INFLAMMATORY ACTIVITIES OF CERTAIN -OXOBUTANOIC ACID DERIVATIVES” (2005).
